Experimental data as given in publication PMC9101188, “Human α-Defensin-6 Neutralizes Clostridioides difficile Toxins TcdA and TcdB by Direct Binding” (International Journal of Molecular Sciences, 2022).
pIC50: −log10 of the molar value.

Columns and labels:
[1] = tested on: Vero cells; assay: Aggregation of TcdB-DL488 and cell morphology in Vero cells; type: cell-based, African green monkey; settings: TcdB-DL488 22 nM + α-def-6 6 µM, 0.5 h, 37 °C (n = 2)
Method: Cells were fixed and permeabilized. […] Scale bars correspond to 50 µm. […] TcdB was detected.
Cells were grown in their respective media under humidified conditions at 37 °C and 5% CO2. Vero cells (African green monkey kidney cells; DSMZ, Braunschweig, Germany) were maintained in Gibco minimum essential medium (MEM; Thermo Fisher Scientific, Waltham, MA, USA) supplemented with 10% fetal calf serum (FCS; Thermo Fisher Scientific, Waltham, MA, USA), 1 mM sodium pyruvate (Thermo Fisher Scientific, Waltham, MA, USA), 2 mM L-glutamine (PAN-Biotech, Aidenbach, Germany), 0.1 mM non-essential amino acids (Thermo Fisher Scientific, Waltham, MA, USA) and 100 U/mL penicillin and 100 µg/mL streptomycin (both Thermo Fisher Scientific, Waltham, MA, USA). CaCo-2 cells (human epithelial colorectal adenocarcinoma cells, HTB-37; ATCC, Manassas, VA, USA) were cultured in Gibco Dulbecco’s Modified Eagle Medium (DMEM; Thermo Fisher Scientific, Waltham, MA, USA) plus 10% FCS, 1 mM sodium pyruvate, 0.1 mM non-essential amino acids and 100 U/mL penicillin and 100 µg/mL streptomycin.
Simultaneously the same volume of PBS was exposed to DyLight^TM 488 NHS-Ester to serve as a negative control in experiments. To remove free fluorescence dye, the samples were rebuffered by passing through Zeba^TM Spin Desalting Columns via centrifugation. […]

[2] = tested on: Rac1; type: cell-based, African green monkey
[3] = tested on: CaCo-2 monolayer; type: cell-based, human
[4] = tested on: TcdB; settings: SPR, 2400 RUs biotinylated TcdB on streptavidin chip; α-def-6 0.1 to 6 µM; 10 mM HEPES, 150 mM NaCl, 50 µM EDTA, 0.005% Tween 20, pH 7.0; 25 µL/min, 25 °C; 4 min injection
Method: (A) 2400 RUs of biotinylated TcdB were immobilized via streptavidin-biotin binding onto a streptavidin sensor chip, and α-def-6 (concentrations as indicated) was applied to the chip for 4 min followed by a dissociation phase with a flow of running buffer. A solution of 6 µM of α-def-6 was injected twice to assess reproducibility, and β-def-1 (6 µM) served as a control. The flow rate was 25 µL/min.
TcdB was biotinylated via EZ-Link^TM Sulfo-NHS-Biotin (Thermo Fisher Scientific, Waltham, MA, USA) according to the manufacturer’s protocol. Briefly, TcdB was incubated with Sulfo-NHS-Biotin for 30 min at room temperature (RT). To remove the excess non-reacted biotin, TcdB was rebuffered with a Zeba^TM Spin Desalting Column (Thermo Fisher Scientific, Waltham, MA, USA). The successful biotinylation was verified via Western blotting and detection with peroxidase-conjugated streptavidin (1:2500, F. Hoffmann-La Roche AG, Basel, Switzerland).
The binding of α-def-6 to biotinylated TcdB was analyzed via surface plasmon resonance spectroscopy (SPR) with a Reichert SPR7500DC SPR spectrometer (Reichert Technologies, Buffalo, NY, USA). All analytes were dialyzed in running buffer (10 mM HEPES, 150 mM NaCl, 50 µM EDTA, 0.005% (v/v) Tween®20, pH 7.0) beforehand. Experiments were performed with a flow rate of 25 µL/min at 25 °C. […]

[5] = tested on: TcdB; settings: TcdB 50 ng, α-def-6 6 µM, PBS, 0.5 h, 37 °C (n = 3)
Method: (C) TcdB (50 ng) was incubated with or without α-def-6 (6 µM) in PBS for 0.5 h at 37 °C. Samples were centrifuged to segregate aggregates and divided into a supernatant (S) and pellet (P) fraction. Fractions were subjected to SDS-PAGE followed by Western blotting. TcdB was detected.
The TcdB stock was centrifuged for 20 min at 14,000 rpm and 4 °C to remove any preformed aggregates. TcdB (50 ng) was incubated in the absence or presence of α-def-6 (6 µM) for 30 min at 37 °C in a final volume of 35 µL PBS. The samples were centrifuged as before to segregate possible aggregates and subsequently separated into a supernatant (30 µL) and pellet fraction (5 µL). The pellet fraction was resuspended with 25 µL PBS to a final volume of 30 µL. Each fraction (30 µL) was then subjected to SDS-PAGE (8% polyacrylamide gel) and Western blotting. TcdB was detected using an anti-TcdB-antibody (1:1000, #ab270452, Abcam, Cambridge, UK) followed by an HRP-conjugated mouse anti-rabbit antibody (1:2500; #sc-2357; Santa Cruz Biotechnology, Dallas, TX, USA).

[6] = tested on: Vero cells
[7] = tested on: CaCo-2 cells
[8] = tested on: CaCo-2 monolayer
[9] = tested on: bacteria; settings: cited from earlier work
Excerpt: The benchmark for treating CDIs is still the use of some specific antibiotics such as vancomycin, metronidazole or fidaxomicin [20]. More and more attention is also being paid to the direct inactivation of the secreted toxins, for example by using anti-toxin-antibodies such as bezlotoxumab or actoxumab. Following the approach of directly inactivating the secreted toxins and based on previous findings of our group and of others, we investigated the effects of human endogenous antimicrobial peptides on the C. difficile toxins TcdA and TcdB. […] The administration of α-def-6 protected human cells from TcdB, but also from the closely related TcdA and the clinically more relevant combination of both TcdA and TcdB. Exemplarily, the protective effect could be confirmed for TcdB in vivo using the zebrafish embryo ...

CC[C@H](C)[C@@H]1NC(=O)CNC(=O)[C@H](CCSC)NC(=O)[C@H](C(C)C)NC(=O)[C@H]([C@@H](C)O)NC(=O)[C@@H]2CSSC[C@@H]3NC(=O)[C@H](Cc4c[nH]cn4)NC(=O)[C@@H](NC(=O)[C@@H](NC(=O)[C@H](Cc4ccccc4)NC(=O)[C@H](C)N)[C@@H](C)O)CSSC[C@@H](C(=O)N[C@@H](CC(C)C)C(=O)O)NC(=O)[C@H](CSSC[C@H](NC(=O)[C@H](CO)NC(=O)[C@H](CCCNC(=N)N)NC(=O)[C@H](CCCNC(=N)N)NC3=O)C(=O)N[C@@H](Cc3ccc(O)cc3)C(=O)N[C@@H](CO)C(=O)N[C@@H]([C@@H](C)O)C(=O)N[C@@H](CCC(=O)O)C(=O)N[C@@H](Cc3ccc(O)cc3)C(=O)N[C@@H](CO)C(=O)N[C@@H](Cc3ccc(O)cc3)C(=O)NCC(=O)N[C@@H]([C@@H](C)O)C(=O)N2)NC(=O)[C@H](Cc2ccccc2)NC(=O)[C@H](CCCNC(=N)N)NC(=O)[C@H](Cc2c[nH]cn2)NC(=O)[C@H](CC(N)=O)NC1=O [α-def-6]
morphological changes of TcdB-DL488-treated cells [1]: no morphological changes
toxin-defensin aggregates in the presence of cells [1]: toxin-defensins-aggregates were also visible
glucosylation of Rac1 by TcdB [2]: clearly less Rac1 was glucosylated
TEER, TcdA + TcdB [3]: clear delay in TEER-reduction
interaction with immobilized TcdB [4]: direct, concentration-dependent interaction
shift of TcdB to pellet fraction [5]: shift of TcdB from the supernatant to the pellet fraction
inhibition of toxin effects on cells, TcdB [6]: clear inhibition
protection of cells against TcdB [6]: almost complete protection
reduction of the amount of rounded cells [6]: clear concentration-dependent reduction of the amount of rounded cells
pIC50 ([6]; 5 h): ~6.30
amount of rounded CaCo-2 cells, TcdB [7]: reduced amount of rounded CaCo-2 cells was visible for at least 6 h
TEER, TcdB [8]: clear delay in TEER-reduction
cytotoxic effects on the monolayer, TcdB [8]: time-dependent inhibition of the cytotoxic effects on the monolayer
microbiocidal activity ([9]; ref [27]): negligible microbiocidal activity
biocidal / antimicrobial activity ([9]; ref [46]): surprisingly low antimicrobial activity
